Measured values published in ChEMBL document CHEMBL1201862, “PubChem BioAssay data set” (2004).
Calls of active or inactive are those of the source.

Key:
[1] = target: Aryl hydrocarbon receptor (Homo sapiens, UniProt P35869); details: Potency;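 further: confirmatory quantitative high-throughput screen measuring activation of the AhR signaling pathway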
[2] = target: T1, Insulin-degrading enzyme (Homo sapiens, UniProt P14735); assay: recombinant IDE activation, cell-free – biochemical, fluorescence polarization, counter-screen for IDE activator project, dose response (AID 588681)
T1 sequence (P14735 whole entry): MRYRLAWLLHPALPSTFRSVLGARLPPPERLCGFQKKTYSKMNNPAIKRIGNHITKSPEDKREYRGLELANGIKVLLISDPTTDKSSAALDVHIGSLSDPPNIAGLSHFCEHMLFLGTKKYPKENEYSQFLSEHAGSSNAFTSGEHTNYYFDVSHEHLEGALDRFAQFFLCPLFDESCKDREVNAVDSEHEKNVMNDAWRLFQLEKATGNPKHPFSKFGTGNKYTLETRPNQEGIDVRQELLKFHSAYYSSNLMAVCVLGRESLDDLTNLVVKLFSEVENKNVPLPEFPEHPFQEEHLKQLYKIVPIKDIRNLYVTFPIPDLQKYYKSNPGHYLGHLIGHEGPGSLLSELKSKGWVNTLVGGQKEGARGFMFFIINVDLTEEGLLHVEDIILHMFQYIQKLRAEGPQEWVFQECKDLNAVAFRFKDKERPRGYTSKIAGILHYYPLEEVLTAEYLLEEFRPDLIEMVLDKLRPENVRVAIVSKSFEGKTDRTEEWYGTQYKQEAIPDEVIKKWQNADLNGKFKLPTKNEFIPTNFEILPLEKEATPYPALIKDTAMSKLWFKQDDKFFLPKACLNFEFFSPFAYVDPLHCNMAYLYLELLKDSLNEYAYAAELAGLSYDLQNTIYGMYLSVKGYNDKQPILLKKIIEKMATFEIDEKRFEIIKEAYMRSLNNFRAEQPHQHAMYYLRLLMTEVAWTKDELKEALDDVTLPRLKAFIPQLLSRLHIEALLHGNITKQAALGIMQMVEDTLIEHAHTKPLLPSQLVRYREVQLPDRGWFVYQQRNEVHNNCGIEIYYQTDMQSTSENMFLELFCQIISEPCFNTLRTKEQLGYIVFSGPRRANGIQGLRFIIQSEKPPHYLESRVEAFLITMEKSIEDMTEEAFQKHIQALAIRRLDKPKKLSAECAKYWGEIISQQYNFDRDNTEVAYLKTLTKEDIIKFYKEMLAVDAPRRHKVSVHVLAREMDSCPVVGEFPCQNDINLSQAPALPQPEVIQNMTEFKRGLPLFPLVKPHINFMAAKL

[3] = target: T1, Insulin-degrading enzyme; assay: cellular IDE activation of Abeta substrate cleavage – fluorescence polarization, HEK cells, dose response (AID 588439); assay type: functional, cell-based
[4] = test system: HEK293; assay: membrane integrity loss in HEK cells – cell-based, fluorescence, cytotoxicity control for IDE activator project, dose response (AID 588440); assay type: functional; details: Homo sapiens;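 further: cytotoxicity by LDH release measuring loss of membrane integrity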
[5] = test system: HEK293; assay: optical interference in Abeta FP readout, dose response, artefact control for IDE activator project, biochemical, fluorescence polarization (AID 588442); assay type: functional, cell-based; details: Homo sapiens
[6] = target: Beta Lactamase (Pseudomonas aeruginosa, UniProt Q932Y6);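 further: confirmatory high-throughput screen measuring VIM-2 metallo-beta-lactamase inhibition by epi-absorbance in dose response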
[7] = target: Beta-lactamase (Pseudomonas aeruginosa, UniProt Q79MP6);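 further: biochemical dose-response test of metallo-beta-lactamase enzyme inhibition, read out by epi-absorbance; purified recombinant IMP-1 metallo-beta-lactamase with nitrocefin as substrate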
[8] = target: Beta-lactamase (Salmonella choleraesuis (strain SC-B67), UniProt Q5J463)
[9] = bead-based luminescence quenchers, dual-tagged ARNT – biochemical, AlphaScreen, cherry-pick, artefact control for ARNT-TACC3 interaction inhibitor project, dose response (AID 651705); assay type: functional;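 further: AlphaScreen bead proximity signal that flags compounds interfering with the detection technology; potency reflects signal decrease which marks the compound as an assay artifact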
[10] = target: T2, Probable nicotinate-nucleotide adenylyltransferase (Staphylococcus aureus (strain N315), UniProt P65502); assay type: functional, Staphylococcus aureus subsp. aureus N315; details: read-out: IC50_Mean;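 on IC50 Mean: confirmatory dose-response retesting of NadD inhibitor hits first found in an ultra-high-throughput screen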
[11] = target: T3, Orexin receptor type 2 (Homo sapiens, UniProt O43614); assay: Counterscreen assay for antagonists of the orexin 1 receptor (OX1R; HCRTR1): Homogeneous Time Resolved Fluorescence (HTRF)-based cell-based dose response assay for antagonists of the orexin 2 receptor (OX2R; HCRTR2), run by assay provider.; assay type: functional
T3 sequence (O43614 whole entry): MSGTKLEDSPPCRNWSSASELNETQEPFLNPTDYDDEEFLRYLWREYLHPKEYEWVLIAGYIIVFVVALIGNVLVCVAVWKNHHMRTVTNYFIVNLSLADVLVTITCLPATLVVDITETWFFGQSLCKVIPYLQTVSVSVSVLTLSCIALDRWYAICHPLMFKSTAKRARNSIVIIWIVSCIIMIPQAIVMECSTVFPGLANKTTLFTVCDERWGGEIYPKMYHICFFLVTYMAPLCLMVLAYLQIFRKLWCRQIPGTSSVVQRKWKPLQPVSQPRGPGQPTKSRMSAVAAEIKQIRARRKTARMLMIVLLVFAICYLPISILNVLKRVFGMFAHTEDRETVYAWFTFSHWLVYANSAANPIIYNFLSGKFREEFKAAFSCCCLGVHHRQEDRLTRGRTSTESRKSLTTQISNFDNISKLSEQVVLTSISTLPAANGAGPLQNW

[12] = target: T4, Orexin/Hypocretin receptor type 1 (Homo sapiens, UniProt O43613); assay: Homogeneous Time Resolved Fluorescence (HTRF)-based cell-based high throughput dose response assay for antagonists of the orexin 1 receptor (OX1R; HCRTR1). [Related pubchem assays (depositor defined):AID434989, AID435008, AID463079, AID485270, AID492963, AID492964, AID492965, AID493232, AID504717, AID504718]; assay type: functional
T4 sequence (O43613 whole entry): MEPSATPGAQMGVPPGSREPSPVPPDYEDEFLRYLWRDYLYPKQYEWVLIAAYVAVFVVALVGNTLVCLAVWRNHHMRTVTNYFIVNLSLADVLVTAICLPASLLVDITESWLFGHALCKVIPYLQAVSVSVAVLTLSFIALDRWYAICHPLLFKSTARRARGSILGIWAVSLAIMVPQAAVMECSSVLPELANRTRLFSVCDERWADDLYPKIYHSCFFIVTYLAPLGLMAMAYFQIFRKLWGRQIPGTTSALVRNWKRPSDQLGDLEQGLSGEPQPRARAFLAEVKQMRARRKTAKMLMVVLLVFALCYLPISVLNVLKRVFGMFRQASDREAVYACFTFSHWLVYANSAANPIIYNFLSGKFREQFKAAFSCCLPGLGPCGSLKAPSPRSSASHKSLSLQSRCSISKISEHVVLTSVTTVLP

[13] = test system: CHO-K1; assay: (§1) Counterscreen for antagonists of the orexin 1 receptor (OX1R; HCRTR1): Homogeneous time resolved fluorescence (HTRF)-based cell-based dose response assay to identify antagonists of the parental CHO-K1 cell line. [Related pubchem assays (depositor defined):AID434989, AID435008, AID463079, AID485270, AID492963, AID492964, AID492965, AID493232, AID504699, AID504701]; assay type: functional; details: Cricetulus griseus
[14] = target: Peroxisome proliferator-activated receptor gamma/Nuclear receptor coactivator 1 (Homo sapiens, UniProt P37231); assay type: functional;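 further: agonist potency as compounds enhance coactivator SRC-1 recruitment to PPARgamma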
[15] = as §1, with “Fluorescence-based” for “Homogeneous time resolved fluorescence (HTRF)-based”, “cell-based high throughput” for “cell-based”, “CHO” for “CHO-K1”; assay type: functional
[16] = target: Peroxisome proliferator-activated receptor gamma/Nuclear receptor coactivator 3 (Homo sapiens, UniProt P37231); assay type: functional;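 further: agonist potency for raising coactivator recruitment to the receptor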
[17] = target: Peroxisome proliferator-activated receptor gamma/Nuclear receptor coactivator 2 (Homo sapiens, UniProt P37231); assay type: functional;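 further: agonist potency for raising coactivator recruitment to the receptor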
[18] = target: T3, Orexin receptor type 2; assay: Counterscreen assay for antagonists of the orexin 1 receptor (OX1R; HCRTR1): Fluorescence-based cell-based dose response assay for antagonists of the orexin 2 receptor (OX2R; HCRTR2), run by assay provider.; assay type: functional
[19] = target: T2, Probable nicotinate-nucleotide adenylyltransferase; assay type: functional, Staphylococcus aureus subsp. aureus N315
[20] = target: T4, Orexin/Hypocretin receptor type 1; assay: Fluorescence-based cell-based high throughput dose response assay for antagonists of the orexin 1 receptor (OX1R; HCRTR1). [Related pubchem assays (depositor defined):AID434989, AID435008, AID463079, AID485270, AID492963, AID492964, AID492965, AID493232, AID504717, AID504718]; assay type: functional
[21] = target: Disintegrin and metalloproteinase domain-containing protein 17 (Homo sapiens, UniProt P78536); assay: inhibition of ADAM17 substrate cleavage – biochemical, quenched FRET substrate, counter-screen for ADAM10 exosite inhibitor project, dose response (AID 743253)
[22] = potency of ADAM10 substrate cleavage blockers – biochemical, QFRET, dose response (AID 743254);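 further: ADAM10 enzyme with the DM2 quenched FRET peptide as substrate; EDANS fluorescence gain as the protease cuts the substrate; inhibitor potency against ADAM10 proteolytic activity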
[23] = target: Protein Wnt-3a (Mus musculus, UniProt P27467); assay: antagonism of Wnt3a pathway luciferase reporter – Wnt-LIGHT cells, luminescence, selectivity assay for Gli-SUFU antagonist project, dose response (AID 651570); assay type: functional; details: read-out: IC50_Mean;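 further: Wnt-LIGHT reporter cells stimulated with conditioned medium from Wnt3a-producing cells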
[24] = target: Neurotensin receptor type 1 (Homo sapiens, UniProt P30989); assay type: functional;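 further: Image-based confirmatory dose-response assay measuring agonist activity at NTR1; NTR1-expressing U2OS osteosarcoma cells imaged for beta-arrestin GFP spot formation; agonist potency where compounds increase beta-arrestin recruitment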
[25] = non-specific 3'UTR reporter inhibition in Clone20-Shn3RL – cell-based, Renilla luciferase, cherry-picked, counter-screen for Shn3 inhibitor project, dose response (AID 624133); assay type: functional
[26] = loss of viability in HepG2 cells – cell-based, CellTiter-Glo, cherry-picked, cytotoxicity control for Shn3 inhibitor project, dose response (AID 624134); assay type: functional
[27] = reduction of Shn3 3'UTR-driven luciferase in osteoblasts – cell-based, Clone20 osteoblasts, firefly luciferase, cherry-picked, dose response (AID 624132); assay type: functional;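 further: firefly luciferase luminescence from reporter carrying the Shn3 3'UTR in osteoblasts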
[28] = Luminescence Cell-Based Dose Retest to Confirm Inhibitors of Cancer Stem Cells. [Related pubchem assays (depositor defined):AID2717, AID2721]; assay type: functional; details: Homo sapiens
[29] = target: T5, Mitochondrial peptide methionine sulfoxide reductase (Bos taurus, UniProt P54149); assay type: functional;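 further: absorbance read-out, biochemical high-throughput dose-response screen for MsrA inhibitors, confirmatory; recombinant bovine MsrA coupled to E. coli TrxB with NADPH and selenocystamine; potency is for inhibitors of MsrA activity on DMSO substrate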
T5 sequence (P54149 whole entry): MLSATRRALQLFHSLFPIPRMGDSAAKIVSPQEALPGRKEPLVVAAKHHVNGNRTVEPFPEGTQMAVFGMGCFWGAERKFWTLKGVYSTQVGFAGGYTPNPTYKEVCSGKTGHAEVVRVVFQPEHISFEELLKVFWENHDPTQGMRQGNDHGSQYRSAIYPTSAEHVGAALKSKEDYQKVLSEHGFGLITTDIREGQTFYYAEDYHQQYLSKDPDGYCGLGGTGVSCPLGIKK

[30] = target: Steroidogenic factor 1 (Homo sapiens, UniProt Q13285); assay: Counterscreen for inverse agonists of the liver receptor homolog-1 (LRH-1; NR5A2): Luminescence-based cell-based high throughput dose response assay to identify inverse agonists of the Steroidogenic Factor 1 Nuclear Receptor (SF1; NR5A1).; assay type: functional
[31] = target: Nuclear receptor subfamily 5 group A member 2 (Homo sapiens, UniProt O00482); assay type: functional, cell-based;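 further: HEK293T cells transfected with LRH-1 and a StAR promoter luciferase reporter; potency for inhibitors that lower LRH-1 driven reporter light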
[32] = nonselective StAR promoter luciferase inhibitors – cell-based, luminescence, luciferase reporter, counter-screen for LRH-1 inverse agonist project, dose response (AID 651969); assay type: functional
[33] = target: DNA repair protein RAD52 homolog (Homo sapiens, UniProt P43351); assay type: functional, biochemical
[34] = target: DNA repair and recombination protein RAD54-like (Homo sapiens, UniProt Q92698); assay: RAD54 Holliday junction migration blockers – biochemical, fluorescence, cherry-picked samples, dose series, confirmation (AID 651657); assay type: functional
[35] = target: FAD-linked sulfhydryl oxidase ALR (Homo sapiens, UniProt P55789); assay: ALR-catalysed DTT oxidation blockers – biochemical, H2O2 detection, luminescence, cherry-pick, dose response (AID 493248)

T2 sequence (P65502 whole entry): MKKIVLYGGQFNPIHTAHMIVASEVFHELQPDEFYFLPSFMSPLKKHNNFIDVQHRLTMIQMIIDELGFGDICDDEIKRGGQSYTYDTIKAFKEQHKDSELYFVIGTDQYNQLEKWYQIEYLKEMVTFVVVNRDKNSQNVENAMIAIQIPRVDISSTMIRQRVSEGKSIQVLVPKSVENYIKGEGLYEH
Beta-lactamase (Salmonella choleraesuis (strain SC-B67), UniProt Q5J463), sequence (Q5J463 whole entry): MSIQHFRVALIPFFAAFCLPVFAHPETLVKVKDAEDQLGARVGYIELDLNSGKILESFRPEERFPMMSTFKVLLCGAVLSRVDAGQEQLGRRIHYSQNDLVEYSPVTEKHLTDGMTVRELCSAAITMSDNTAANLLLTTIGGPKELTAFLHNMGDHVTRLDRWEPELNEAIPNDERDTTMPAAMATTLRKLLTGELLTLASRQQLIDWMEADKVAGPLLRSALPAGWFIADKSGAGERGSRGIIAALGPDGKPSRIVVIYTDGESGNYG
Nuclear receptor subfamily 5 group A member 2, sequence (O00482 whole entry): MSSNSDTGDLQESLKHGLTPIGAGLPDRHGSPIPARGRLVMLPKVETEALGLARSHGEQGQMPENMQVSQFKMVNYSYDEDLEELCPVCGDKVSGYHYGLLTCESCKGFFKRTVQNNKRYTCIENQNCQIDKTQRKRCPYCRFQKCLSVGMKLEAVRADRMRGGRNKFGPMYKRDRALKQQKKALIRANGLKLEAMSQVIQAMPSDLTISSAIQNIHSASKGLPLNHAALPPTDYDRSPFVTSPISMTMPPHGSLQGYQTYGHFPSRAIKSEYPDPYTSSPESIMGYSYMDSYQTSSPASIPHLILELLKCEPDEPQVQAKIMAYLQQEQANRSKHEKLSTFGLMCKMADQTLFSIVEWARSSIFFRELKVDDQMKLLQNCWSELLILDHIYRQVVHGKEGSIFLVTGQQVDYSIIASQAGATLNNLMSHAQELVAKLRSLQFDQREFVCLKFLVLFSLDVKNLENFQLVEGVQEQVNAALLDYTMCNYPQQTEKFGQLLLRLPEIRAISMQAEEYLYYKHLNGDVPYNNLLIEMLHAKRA
Peroxisome proliferator-activated receptor gamma/Nuclear receptor coactivator 3, sequence (P37231 whole entry): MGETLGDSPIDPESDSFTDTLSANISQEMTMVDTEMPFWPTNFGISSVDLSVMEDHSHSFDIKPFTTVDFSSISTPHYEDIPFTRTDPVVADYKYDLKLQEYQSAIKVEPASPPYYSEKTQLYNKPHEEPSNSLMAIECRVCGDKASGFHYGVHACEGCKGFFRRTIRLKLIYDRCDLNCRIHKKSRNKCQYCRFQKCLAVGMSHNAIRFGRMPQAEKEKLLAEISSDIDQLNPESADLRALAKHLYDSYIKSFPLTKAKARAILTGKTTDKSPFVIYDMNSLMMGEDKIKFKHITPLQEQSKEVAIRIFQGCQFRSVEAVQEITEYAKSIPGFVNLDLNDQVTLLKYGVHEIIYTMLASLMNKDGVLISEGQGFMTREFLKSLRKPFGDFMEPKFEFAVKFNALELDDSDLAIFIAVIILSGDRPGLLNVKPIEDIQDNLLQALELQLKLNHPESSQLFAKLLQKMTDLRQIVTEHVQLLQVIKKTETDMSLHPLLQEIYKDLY
Peroxisome proliferator-activated receptor gamma/Nuclear receptor coactivator 3, sequence (Q9Y6Q9 whole entry, further chain): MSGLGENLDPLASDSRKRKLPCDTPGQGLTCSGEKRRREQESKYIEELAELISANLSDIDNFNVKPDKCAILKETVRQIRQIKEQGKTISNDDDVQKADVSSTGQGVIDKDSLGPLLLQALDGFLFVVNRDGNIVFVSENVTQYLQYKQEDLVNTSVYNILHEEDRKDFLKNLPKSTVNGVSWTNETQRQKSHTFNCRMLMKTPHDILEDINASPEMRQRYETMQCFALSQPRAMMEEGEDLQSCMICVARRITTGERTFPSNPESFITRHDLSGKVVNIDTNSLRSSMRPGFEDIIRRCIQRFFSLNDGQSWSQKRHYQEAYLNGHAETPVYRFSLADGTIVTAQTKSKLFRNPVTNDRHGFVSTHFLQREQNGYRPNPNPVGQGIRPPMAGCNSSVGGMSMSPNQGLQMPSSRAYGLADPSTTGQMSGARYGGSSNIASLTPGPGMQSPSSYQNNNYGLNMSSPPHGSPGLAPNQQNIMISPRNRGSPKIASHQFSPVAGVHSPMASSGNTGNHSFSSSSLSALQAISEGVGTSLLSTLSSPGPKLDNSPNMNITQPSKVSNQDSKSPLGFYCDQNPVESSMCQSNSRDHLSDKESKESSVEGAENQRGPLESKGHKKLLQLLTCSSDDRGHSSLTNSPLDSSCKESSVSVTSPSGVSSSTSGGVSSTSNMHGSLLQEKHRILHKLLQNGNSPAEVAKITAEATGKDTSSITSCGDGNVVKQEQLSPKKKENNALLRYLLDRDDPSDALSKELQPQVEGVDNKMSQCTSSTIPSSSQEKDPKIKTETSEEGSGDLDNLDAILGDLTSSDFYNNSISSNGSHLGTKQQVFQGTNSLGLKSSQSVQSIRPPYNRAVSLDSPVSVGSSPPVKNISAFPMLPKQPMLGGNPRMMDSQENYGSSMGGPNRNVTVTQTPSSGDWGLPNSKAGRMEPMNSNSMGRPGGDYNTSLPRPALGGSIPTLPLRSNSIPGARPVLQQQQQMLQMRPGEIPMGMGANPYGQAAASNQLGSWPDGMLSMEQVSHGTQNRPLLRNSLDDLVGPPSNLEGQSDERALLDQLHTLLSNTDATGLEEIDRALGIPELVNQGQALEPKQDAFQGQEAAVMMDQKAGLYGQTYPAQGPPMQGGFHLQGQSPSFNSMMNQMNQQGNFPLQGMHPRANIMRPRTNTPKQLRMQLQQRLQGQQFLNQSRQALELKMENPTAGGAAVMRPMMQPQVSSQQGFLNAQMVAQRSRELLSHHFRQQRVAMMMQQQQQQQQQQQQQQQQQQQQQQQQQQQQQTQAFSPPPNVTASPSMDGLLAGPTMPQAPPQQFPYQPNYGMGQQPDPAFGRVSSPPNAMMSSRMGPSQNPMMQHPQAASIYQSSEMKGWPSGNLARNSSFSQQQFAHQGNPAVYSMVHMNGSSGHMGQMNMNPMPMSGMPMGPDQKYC
Peroxisome proliferator-activated receptor gamma/Nuclear receptor coactivator 2, sequence (P37231 whole entry): as the sequence (P37231 whole entry) above
Peroxisome proliferator-activated receptor gamma/Nuclear receptor coactivator 2, sequence (Q15596 whole entry, further chain): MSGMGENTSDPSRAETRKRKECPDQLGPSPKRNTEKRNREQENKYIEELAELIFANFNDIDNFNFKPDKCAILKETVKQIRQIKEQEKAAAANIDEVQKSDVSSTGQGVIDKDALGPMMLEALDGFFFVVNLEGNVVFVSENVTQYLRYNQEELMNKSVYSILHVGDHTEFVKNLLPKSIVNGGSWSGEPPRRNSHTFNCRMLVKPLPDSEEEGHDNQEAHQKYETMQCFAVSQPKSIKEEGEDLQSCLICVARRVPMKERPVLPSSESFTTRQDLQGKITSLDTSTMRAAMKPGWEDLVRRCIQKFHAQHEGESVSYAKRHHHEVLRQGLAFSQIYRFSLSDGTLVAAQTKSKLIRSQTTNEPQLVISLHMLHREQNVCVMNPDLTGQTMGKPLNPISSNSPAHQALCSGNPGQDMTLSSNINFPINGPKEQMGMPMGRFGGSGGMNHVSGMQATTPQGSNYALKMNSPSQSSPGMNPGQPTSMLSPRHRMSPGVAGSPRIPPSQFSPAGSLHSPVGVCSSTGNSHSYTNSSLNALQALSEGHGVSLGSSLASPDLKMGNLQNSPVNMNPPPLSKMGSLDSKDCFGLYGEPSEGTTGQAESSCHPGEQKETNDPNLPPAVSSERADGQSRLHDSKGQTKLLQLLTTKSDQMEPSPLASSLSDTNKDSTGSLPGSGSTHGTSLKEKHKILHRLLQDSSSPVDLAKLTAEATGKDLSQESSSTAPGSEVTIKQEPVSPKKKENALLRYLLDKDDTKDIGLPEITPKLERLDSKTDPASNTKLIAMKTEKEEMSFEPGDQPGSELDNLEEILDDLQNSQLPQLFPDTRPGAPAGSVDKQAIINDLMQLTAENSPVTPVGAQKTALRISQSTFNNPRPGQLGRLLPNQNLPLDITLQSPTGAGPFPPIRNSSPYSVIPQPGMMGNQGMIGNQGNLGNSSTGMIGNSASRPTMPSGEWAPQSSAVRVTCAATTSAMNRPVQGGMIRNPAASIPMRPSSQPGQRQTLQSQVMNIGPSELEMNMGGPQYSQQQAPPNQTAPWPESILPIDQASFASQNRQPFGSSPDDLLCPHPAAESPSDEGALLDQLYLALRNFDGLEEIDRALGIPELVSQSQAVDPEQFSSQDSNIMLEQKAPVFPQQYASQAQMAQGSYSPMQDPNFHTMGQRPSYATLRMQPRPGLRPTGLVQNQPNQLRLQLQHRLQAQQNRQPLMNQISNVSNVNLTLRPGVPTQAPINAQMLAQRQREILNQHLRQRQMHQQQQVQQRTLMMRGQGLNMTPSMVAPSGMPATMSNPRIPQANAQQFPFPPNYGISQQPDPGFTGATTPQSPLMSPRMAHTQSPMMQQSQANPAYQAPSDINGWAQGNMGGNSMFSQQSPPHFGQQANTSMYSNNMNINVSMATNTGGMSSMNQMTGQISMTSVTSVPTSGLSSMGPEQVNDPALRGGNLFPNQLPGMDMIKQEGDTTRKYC

COC(=O)Nc1cccc(OC(=O)Nc2cccc(C)c2)c1
AC50 [1]: 39.8 µM (inconclusive)

COC(=O)C(C(=O)OC)c1ncccc1[N+](=O)[O-]
EC50 [2]: > 54.7 µM (inactive)
EC50 [3]: > 54.7 µM (inactive)
IC50 [4]: > 89.1 µM (inactive)
EC50 [5]: > 55.9 µM (inactive)

O=C1C2C(c3ccccc3)C=CC(c3ccccc3)C2C(=O)N1c1ccncc1 (stereo not given)
IC50 [6]: 62.4 µM (inactive)
IC50 [7]: 14.6 µM (inactive)
IC50 [8]: > 59.6 µM (inactive)

CC(=O)OC[C@H]1O[C@@H](Sc2cccc3cccnc23)[C@H](OC(C)=O)[C@@H](OC(C)=O)[C@H]1OC(C)=O
AC50 [9]: 91.4 µM (active)

O=C(CSc1ccc(Br)c2cccc(Cl)c12)Nc1ccc(S(=O)(=O)Nc2nccs2)cc1
IC50 [10]: 25.8 µM (active)
IC50 [11]: > 50 µM (inactive)
IC50 [12]: 1.43 µM (active)
IC50 [13]: > 66.2 µM (inactive)
EC50 [14]: 61 µM (not active)
IC50 [15]: > 49.8 µM (inactive)
EC50 [16]: 84.2 µM (not active)
EC50 [17]: 28.6 µM (not active)
IC50 [18]: 31.5 µM (inactive)
IC50 [19]: 6.53 µM (active)
IC50 [20]: 4.31 µM (active)
IC50 [21]: > 69.5 µM (inactive)
IC50 [22]: > 69.5 µM (inactive)

CCCCNc1c(-c2ccc(OC)c(Sc3ccc(OC)cc3)c2)nc2ccccn12
IC50 [23]: 11.5 µM (active)
EC50 [24]: 32.2 µM (inactive)
AC50 [25]: 4.38 µM (active)
AC50 [26]: 48.4 µM (active)
AC50 [27]: 821 nM (active)
AC50 [28]: 6 µM (active)

CC(NC(C)c1ccccc1Cl)C(=O)Nc1cccc(S(=O)(=O)N2CCCCC2)c1 (stereo not given)
IC50 [11]: > 50 µM (inactive)
IC50 [12]: 0.238 µM (active)
IC50 [13]: > 66.2 µM (inactive)
IC50 [15]: 48.8 µM (inactive)
IC50 [18]: 18.9 µM (inactive)
IC50 [20]: 3.25 µM (active)

COC1C(OC(=O)/C=C/C=C/C=C/C=C/C(=O)O)CCC2(CO2)C1C1(C)OC1CC=C(C)C.c1ccc(Nc2ccccc2)cc1 (stereo not given)
IC50 [29]: 94.5 µM (inactive)

O=C(CSc1nc(N2CCOCC2)nc(N2CCOCC2)n1)Nc1ccc([N+](=O)[O-])cc1
EC50 [2]: > 54.7 µM (inactive)
EC50 [3]: > 54.7 µM (inactive)
IC50 [4]: > 89.2 µM (inactive)
EC50 [5]: 21.2 µM (inactive)

Cc1cccc(NC(=O)COC(=O)CN2C(=O)c3ccccc3C2=O)c1C
IC50 [30]: 5.33 µM (active)
IC50 [31]: 46.7 µM (inactive)
IC50 [32]: 35.9 µM (inactive)

COc1ccc(Nc2c3ccccc3nc3ccccc23)cc1
AC50 [33]: 1.9 µM (active)
AC50 [34]: 7.04 µM (active)
AC50 [35]: 16 nM (active)
